Usually IC50 stands for the concentration that inhibits the measured activity by half.

One assay addresses T1, CDK7/Cyclin H/MNAT1 (Homo sapiens, UniProt P50613).
T1 construct: purchased Invitrogen PR6749B
Nature of the assay: Enzymatic assay for CDK7 (LANCE Ultra kinase assay, FRET based). To be noted: for IC50: ATP at Km. In kind it is biochemical. The essentials:
(§1)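 Inhibition of purified CDK/cyclin complexes was measured with ATP at its Km, using a ULight-labeled peptide substrate. Substrate phosphorylation was detected by FRET with a Europium-labeled anti-phospho-antibody.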
(In TR-FRET formats the signal depends on donor and acceptor labels being close together.)

Another assay concerns OVCAR-3. As to the kind of experiment: OVCAR-3 viability assay (CellTiter-Glo, 72 hours). Type of assay: cell-based. To be noted: Homo sapiens; OVCAR-3 cells. On the procedure:
(§2) Human […] cell line, MV4-11_(ATCC, Cat #CRL-9591), NSCLC (Non-small cell lung cancer) cell line H460 (ATCC, Cat #HTB-177), A2780 (ECACC, Cat #93112519) and OVCAR-3(ATCC, Cat #HTB-161) were obtained from ATCC. Cells were grown in RPMI-1640 media (Invitrogen, Cat #22400-089) supplemented with 10% FBS (Invitrogen, Cat #10099141) and 1% penicillin/streptomycin (Invitrogen, Cat #15070063) and cultured at 37° C., 5% CO2 in a humidified chamber. All cell lines were routinely tested for mycoplasma.
(§3) To effect of the CDK7 inhibitor to inhibit the growth of target cancer cells, viability assay were conducted a 72 hour time period. Briefly, the candidate cell line was plated in 96 well plate at the following density of cells respectively. 1×10^4 cells/well for MV4-11, 5×10^3 for H460 and OVCAR-3, and 1×10^3 for A2780. After 24 hours, the cells were treated with various concentrations of the compound (ranging from 0.0015 uM to 10 uM). DMSO solvent without compound served as a control and final DMSO concentration lest than 0.1%. After 72 hours of incubation at 37° C., 5% CO2 incubator, cells were analyzed for the viability using the CellTiter-Glo Luminescent Cell Viability Assay (Promega, Cat #G7570). All viability assays were performed in duplicate and Luminescence was read using an Envision (Perkin Elmer, USA). Data was analyzed using XLfit software.

The next assay has as its target T2, CDK1/Cyclin B (Homo sapiens, UniProt P06493).
T2 construct: purchased Invitrogen PR4768C
Nature of the assay: Enzymatic assay for CDK1 (LANCE Ultra kinase assay, FRET based). In kind it is biochemical. To be noted: ATP at Km; read-out: CDK1 enzymatic activity IC50. The essentials:
as §1

The next assay has as its target T3, CDK2/Cyclin A (Homo sapiens, UniProt P24941).
T3 construct: purchased Invitrogen PV6290
As to the kind of experiment: Enzymatic assay for CDK2 (LANCE Ultra kinase assay, FRET based). Type of assay: biochemical. To be noted: ATP at Km. The method in brief:
(§4)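 Compounds tested as 8 doses in 4-fold steps against CDK2/Cyclin A ([…]) or CDK5/p25 ([…]), with ATP at its Km and 68 nM ULight-MBP substrate. After 60 min at 23° C., EDTA plus Eu-labelled anti-phospho-MBP added; TR-FRET (615/665 nm) read after another 60 min.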

The subject of another assay is A2780. Nature of the assay: A2780 viability assay (CellTiter-Glo, 72 hours). Type of assay: cell-based. To be noted: Homo sapiens; A2780 cells. The protocol:
as §2, §3
For orientation: ATP-based viability assays read luminescence as a measure of living cells.

In the next assay the target is T4, CDK5/p25 (Homo sapiens, UniProt Q00535).
T4 construct: purchased Invitrogen PR8543B
As to the kind of experiment: Enzymatic assay for CDK5 (LANCE Ultra kinase assay, FRET based). Type of assay: biochemical. To be noted: ATP at Km. The method in brief:
as §4

T1 sequence (P50613 whole entry): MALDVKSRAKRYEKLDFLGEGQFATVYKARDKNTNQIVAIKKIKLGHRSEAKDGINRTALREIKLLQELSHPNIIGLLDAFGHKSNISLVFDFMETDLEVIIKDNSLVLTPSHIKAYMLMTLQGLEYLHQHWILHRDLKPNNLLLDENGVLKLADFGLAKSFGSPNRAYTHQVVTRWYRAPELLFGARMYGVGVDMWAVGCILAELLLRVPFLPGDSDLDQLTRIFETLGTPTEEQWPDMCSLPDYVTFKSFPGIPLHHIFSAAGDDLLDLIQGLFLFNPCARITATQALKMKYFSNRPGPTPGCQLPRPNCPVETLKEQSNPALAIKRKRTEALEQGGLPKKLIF
T1 sequence (P51946 whole entry partner): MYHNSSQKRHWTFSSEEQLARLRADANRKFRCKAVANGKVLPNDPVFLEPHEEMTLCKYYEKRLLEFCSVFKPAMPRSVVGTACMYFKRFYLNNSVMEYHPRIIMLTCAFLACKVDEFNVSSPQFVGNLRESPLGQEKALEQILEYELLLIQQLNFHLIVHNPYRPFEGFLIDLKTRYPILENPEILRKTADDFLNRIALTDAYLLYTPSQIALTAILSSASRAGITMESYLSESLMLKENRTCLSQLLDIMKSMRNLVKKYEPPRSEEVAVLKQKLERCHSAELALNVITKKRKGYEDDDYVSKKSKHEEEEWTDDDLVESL
T1 sequence (P51948 whole entry partner): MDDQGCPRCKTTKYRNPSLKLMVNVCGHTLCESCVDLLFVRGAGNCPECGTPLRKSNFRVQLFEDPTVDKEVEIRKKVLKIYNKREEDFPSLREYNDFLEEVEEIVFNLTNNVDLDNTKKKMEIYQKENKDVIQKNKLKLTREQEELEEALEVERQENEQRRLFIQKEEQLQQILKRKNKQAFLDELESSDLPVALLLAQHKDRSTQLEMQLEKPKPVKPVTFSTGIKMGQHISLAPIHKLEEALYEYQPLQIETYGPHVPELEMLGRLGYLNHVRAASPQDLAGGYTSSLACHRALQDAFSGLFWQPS
T2 sequence (P06493 whole entry): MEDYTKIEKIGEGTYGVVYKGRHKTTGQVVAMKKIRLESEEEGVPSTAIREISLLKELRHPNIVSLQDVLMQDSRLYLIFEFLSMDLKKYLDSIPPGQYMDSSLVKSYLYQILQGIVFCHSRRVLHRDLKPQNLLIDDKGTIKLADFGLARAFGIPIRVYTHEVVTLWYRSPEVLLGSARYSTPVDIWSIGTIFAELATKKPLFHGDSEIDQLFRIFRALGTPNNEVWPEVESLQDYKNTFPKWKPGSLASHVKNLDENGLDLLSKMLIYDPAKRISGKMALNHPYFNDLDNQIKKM
T2 sequence (P14635 whole entry partner): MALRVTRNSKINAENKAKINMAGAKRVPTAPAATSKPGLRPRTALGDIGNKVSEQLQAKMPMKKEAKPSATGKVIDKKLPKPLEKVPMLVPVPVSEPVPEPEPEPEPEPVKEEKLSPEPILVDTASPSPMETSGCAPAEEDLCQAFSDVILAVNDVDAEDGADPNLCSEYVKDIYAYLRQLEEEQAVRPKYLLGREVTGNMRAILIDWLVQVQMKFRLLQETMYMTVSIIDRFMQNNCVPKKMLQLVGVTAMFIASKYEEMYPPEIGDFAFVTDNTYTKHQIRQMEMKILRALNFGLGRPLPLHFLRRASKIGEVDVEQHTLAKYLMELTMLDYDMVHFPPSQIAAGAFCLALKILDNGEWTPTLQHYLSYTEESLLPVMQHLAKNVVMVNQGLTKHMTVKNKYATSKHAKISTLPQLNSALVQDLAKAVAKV
T4 sequence (Q00535 whole entry): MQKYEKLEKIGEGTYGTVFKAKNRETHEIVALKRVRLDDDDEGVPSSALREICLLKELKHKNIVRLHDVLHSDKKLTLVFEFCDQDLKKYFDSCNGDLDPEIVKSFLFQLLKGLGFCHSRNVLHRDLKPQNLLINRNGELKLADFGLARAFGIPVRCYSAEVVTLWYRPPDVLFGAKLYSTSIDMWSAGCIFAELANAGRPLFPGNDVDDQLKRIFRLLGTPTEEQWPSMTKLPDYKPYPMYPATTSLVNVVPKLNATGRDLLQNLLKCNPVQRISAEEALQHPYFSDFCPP
T4 sequence (Q15078 99-307 partner limits assumed): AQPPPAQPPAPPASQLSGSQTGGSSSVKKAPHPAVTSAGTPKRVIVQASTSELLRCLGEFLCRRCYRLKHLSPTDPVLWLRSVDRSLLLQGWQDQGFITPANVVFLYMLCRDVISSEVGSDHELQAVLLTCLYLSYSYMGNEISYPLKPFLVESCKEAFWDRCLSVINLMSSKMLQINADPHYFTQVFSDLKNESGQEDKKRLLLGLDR

As to `Cc1cc(NCc2ccccc2-c2nccc3cc(NC(=O)/C=C/CN(C)C)ccc23)n2ncc(C(C)C)c2n1` [Compound 153], the IC50 on CDK7/Cyclin H/MNAT1 is under 0.1 µM; with OVCAR-3 it was under 1 µM; on CDK1/Cyclin B, over 1 µM; on CDK2/Cyclin A it was over 1 µM; in the assay on A2780, under 1 µM; at CDK5/p25, over 1 µM. Further, on CDK7/Cyclin H/MNAT1, the “CDK1/CDK7: Selectivity of CDK7 inhibition over CDK1 inhibition” value is “A (A indicates [fold] > 500)”. Moreover, the “CDK2/CDK7: Selectivity of CDK7 inhibition over CDK2 inhibition” value at CDK7/Cyclin H/MNAT1 is “A (A indicates [fold] > 500)”. In addition, at CDK7/Cyclin H/MNAT1, the “CDK5/CDK7: Selectivity of CDK7 inhibition over CDK5 inhibition” value was “A (A indicates [fold] > 500)”.

In the case of `C=C(F)C(=O)Nc1ccc2c(-c3ccccc3CNc3nc(N4CCCC(OC)CC4)nc4c(C(C)C)cnn34)nccc2c1` (stereo not drawn) [Compound 100], the IC50 was over 1 µM against CDK7/Cyclin H/MNAT1; 1 to 10 µM with OVCAR-3; over 1 µM on CDK1/Cyclin B; over 1 µM on CDK2/Cyclin A; 1 to 10 µM in the assay with A2780; over 1 µM against CDK5/p25. Moreover, the “CDK1/CDK7: Selectivity of CDK7 inhibition over CDK1 inhibition” value at CDK7/Cyclin H/MNAT1 is “C (C indicates [fold] ≤ 50)”. Further, the “CDK2/CDK7: Selectivity of CDK7 inhibition over CDK2 inhibition” value on CDK7/Cyclin H/MNAT1 was “C (C indicates [fold] ≤ 50)”. In addition, on CDK7/Cyclin H/MNAT1, the “CDK5/CDK7: Selectivity of CDK7 inhibition over CDK5 inhibition” value is “C (C indicates [fold] ≤ 50)”.

With `C=C(F)C(=O)Nc1ccc2c(-c3ccccc3CNc3cc(N4CCC(OC)CC4)nc4c(C(C)C)cnn34)nccc2c1` [Compound 91], the IC50 against CDK7/Cyclin H/MNAT1 was 0.1 to 1 µM; with OVCAR-3, under 1 µM; at CDK1/Cyclin B, over 1 µM; against CDK2/Cyclin A, over 1 µM; with A2780, under 1 µM; on CDK5/p25 it was over 1 µM. Besides, the “CDK1/CDK7: Selectivity of CDK7 inhibition over CDK1 inhibition” value on CDK7/Cyclin H/MNAT1 is “B (B indicates 50 < [fold] ≤ 500)”. The “CDK2/CDK7: Selectivity of CDK7 inhibition over CDK2 inhibition” value at CDK7/Cyclin H/MNAT1 was “B (B indicates 50 < [fold] ≤ 500)”. Further, on CDK7/Cyclin H/MNAT1, the “CDK5/CDK7: Selectivity of CDK7 inhibition over CDK5 inhibition” value is “B (B indicates 50 < [fold] ≤ 500)”.

`C=CC(=O)Nc1ccc2c(-c3ccccc3CNc3nc(NC4CCC(C)(C)NC4)nc4c(C(C)C)cnn34)nccc2c1` (stereo not drawn) [Compound 178]: the IC50 against CDK7/Cyclin H/MNAT1 was under 0.1 µM; in the assay on OVCAR-3, under 1 µM; at CDK1/Cyclin B it was over 1 µM; against CDK2/Cyclin A it was over 1 µM; in the assay with A2780, under 1 µM; at CDK5/p25, over 1 µM. Further, the “CDK1/CDK7: Selectivity of CDK7 inhibition over CDK1 inhibition” value on CDK7/Cyclin H/MNAT1 is “A (A indicates [fold] > 500)”. Further, the “CDK2/CDK7: Selectivity of CDK7 inhibition over CDK2 inhibition” value at CDK7/Cyclin H/MNAT1 was “A (A indicates [fold] > 500)”. The “CDK5/CDK7: Selectivity of CDK7 inhibition over CDK5 inhibition” value at CDK7/Cyclin H/MNAT1 is “A (A indicates [fold] > 500)”.

As for `C=C(F)C(=O)Nc1ccc2c(-c3ccccc3CNc3nc(N[C@@H]4CCCN(C)C4)nc4c(C(C)C)cnn34)nccc2c1` [Compound 173], the 50% inhibitory concentration (IC50) at CDK7/Cyclin H/MNAT1 was under 0.1 µM; in the assay with OVCAR-3 it was under 1 µM; at CDK1/Cyclin B, over 1 µM; against CDK2/Cyclin A it was over 1 µM; in the assay with A2780, under 1 µM; against CDK5/p25, over 1 µM. For the same compound, the “CDK1/CDK7: Selectivity of CDK7 inhibition over CDK1 inhibition” value at CDK7/Cyclin H/MNAT1 was “A (A indicates [fold] > 500)”. For the same compound, the “CDK2/CDK7: Selectivity of CDK7 inhibition over CDK2 inhibition” value at CDK7/Cyclin H/MNAT1 is “A (A indicates [fold] > 500)”. Moreover, on CDK7/Cyclin H/MNAT1, the “CDK5/CDK7: Selectivity of CDK7 inhibition over CDK5 inhibition” value was “A (A indicates [fold] > 500)”.

Take `C=C(F)C(=O)Nc1ccc2c(-c3ccccc3CNc3nc(N4CCC(F)CC4)nc4c(C(C)C)cnn34)nccc2c1` [Compound 90]: the IC50 is 0.1 to 1 µM at CDK7/Cyclin H/MNAT1; under 1 µM with OVCAR-3; over 1 µM on CDK1/Cyclin B; over 1 µM at CDK2/Cyclin A; under 1 µM with A2780; over 1 µM against CDK5/p25. The “CDK1/CDK7: Selectivity of CDK7 inhibition over CDK1 inhibition” value at CDK7/Cyclin H/MNAT1 was “B (B indicates 50 < [fold] ≤ 500)”. Further, on CDK7/Cyclin H/MNAT1, the “CDK2/CDK7: Selectivity of CDK7 inhibition over CDK2 inhibition” value was “B (B indicates 50 < [fold] ≤ 500)”. Besides, the “CDK5/CDK7: Selectivity of CDK7 inhibition over CDK5 inhibition” value on CDK7/Cyclin H/MNAT1 is “B (B indicates 50 < [fold] ≤ 500)”.

(Values after patent US12606561B2, “Substituted pyrazolo[1,5-a][1,3,5]triazines as CDK inhibitors” (QURIENT CO., LTD., priority 2018, dated 2026).)
